Data published in patent publication US4640910A (Abbott Laboratories, priority 1985, dated 1987).
Converted amounts (≈) assume the structure as drawn. Where two headings read alike, the source gives them in different places.

Assays:
Strep. pneumoniae = test: Extended mouse protection study; details: oral
Strep. pyogenes = test: Extended mouse protection study; details: oral
Staph. aureus = test: Extended mouse protection study; details: oral
Ps. aeruginosa A5007 = test: Antimicrobial spectrum, agar dilution MIC; assay type: cell-based; details: Pseudomonas aeruginosa, BHI agar, 35°-37° C., 20-24 hours
[1] = system: Lactobacillus casei ATCC 7469; test: Antimicrobial spectrum, agar dilution MIC; assay type: cell-based; details: Lacticaseibacillus casei, ATCC7469
Strep. pyogenes 930 = test: Antimicrobial spectrum, agar dilution MIC; assay type: cell-based; details: Streptococcus pyogenes, BHI agar, 35°-37° C., 20-24 hours
Staph. aureus A 5177 = test: Antimicrobial spectrum, agar dilution MIC; assay type: cell-based; details: Staphylococcus aureus, A5177; Staph. aureus A 5177; BHI agar, 35°-37° C., 20-24 hours; read-out: MIC
Micrococcus luteus 9341 = test: Antimicrobial spectrum, agar dilution MIC; assay type: cell-based; details: Micrococcus luteus, 9341
Ps. aeruginosa BMH10 = test: Antimicrobial spectrum, agar dilution MIC; assay type: cell-based; details: Pseudomonas aeruginosa; Ps. aeruginosa BMH10; BHI agar, 35°-37° C., 20-24 hours; read-out: MIC
[2] = system: Enterobact. aerogenes ATCC 13048; test: Antimicrobial spectrum, agar dilution MIC; assay type: cell-based; details: Enterobact. aerogenes ATCC 13048; BHI agar, 35°-37° C., 20-24 hours; read-out: MIC
Ps. aeruginosa K799/WT = test: Antimicrobial spectrum, agar dilution MIC; assay type: cell-based; details: Pseudomonas aeruginosa, BHI agar, 35°-37° C., 20-24 hours
[3] = system: Providencia stuartii CMX 640; test: Antimicrobial spectrum, agar dilution MIC; assay type: cell-based; details: CMX640; Providencia stuartii CMX 640; BHI agar, 35°-37° C., 20-24 hours; read-out: MIC
indicated test organism = test: Acute mouse protection test; assay type: in vivo, female, Swiss albino mice; details: 1 and 5 hours post-infection, 7 days, * = highest level tested
Ps. cepacia 2961 = test: Antimicrobial spectrum, agar dilution MIC; assay type: cell-based; details: Burkholderia cepacia; Ps. cepacia 2961; BHI agar, 35°-37° C., 20-24 hours; read-out: MIC
[4] = Stability and release of drug from prodrug in aqueous buffers pH 2 to 12 (dissolution apparatus, HPLC); assay type: physicochemical
Experimental: Samples of 2'-trimethylsilylerythromycin A and 2'-trimethylsilyl-6-O-methylerythromycin A were dissolved in 10-50 ml dimethyl sulfoxide or acetonitrile to give a solution containing 15-75 mg/ml. An aliquot containing 75 mg of prodrug was added to aqueous buffers ranging in pH from 2 to 12 to give a final volume equal to 500 ml. The buffered mixtures were stirred at 37° C. for at least 90 minutes. A standard dissolution test apparatus (Vanderkamp 600, Van-Kel Industries, Inc., 36 Meridian Road, Edisoin, N.J. 08820) was used to provide temperature and stirring rate control.
Aliquots were taken at 15, 30, 45, 60, 90, 120, 180, 240 and 360 minutes for analysis. Each sample was mixed with an internal standard, adjusted rapidly to pH 9 with 1M tricine buffer and extracted immediately with ethyl acetate. The organic extracts were evaporated and redissolved in a solution of 3% tetrahydrofuran in heptane. Samples of these solutions were injected using an autosampler (WISP 71)B, Waters Chromatography, Division of Millipore, 34 Maple Street, Milford, Mass. 01757). The prodrugs and drugs were separated by high performance liquid chromatography, detected at 225 nm using a spectrophotometer (Spectroflow 773 Absorbence Detector, Kratos Analytical Instruments), and were quantified with a digital integrator.

[5] = carboxymethylcellulose with milk (reduces gastric acid secretion)
[6] = phosphate buffer solution with milk (reduces gastric acid secretion)
[7] = Mus musculus, po, 168 h, oral administration, read-out: ED50
[8] = Mus musculus, sc, 168 h, subcutaneous administration, read-out: ED50
[9] = Mus musculus, sc, 168 h, subcutaneous administration
[10] = Mus musculus, po, 168 h, oral administration

`CC[C@H]1OC(=O)[C@H](C)[C@@H](O[C@H]2C[C@@](C)(OC)[C@@H](O)[C@H](C)O2)[C@H](C)[C@@H](O[C@@H]2O[C@H](C)C[C@H](N(C)C)[C@H]2O)[C@](C)(OC)C[C@@H](C)C(=O)[C@H](C)[C@@H](O)[C@]1(C)O` [6-O-methyl erythromycin A] gave an ED50 (Strep. pneumoniae; carboxymethylcellulose) of 2.4 mg/kg/day, an ED50 (Strep. pneumoniae; [5]) of 2.2 mg/kg/day and an ED50 (Strep. pneumoniae; phosphate buffer solution) of 1.6 mg/kg/day. It also gave an ED50 (Strep. pneumoniae; [6]) of 1.6 mg/kg/day, an ED50 (Strep. pyogenes; [5]) of 5.3 mg/kg/day and an ED50 (Strep. pyogenes; phosphate buffer solution) of 5.9 mg/kg/day. For the same compound, the ED50 (Strep. pyogenes; [6]) was 11.1 mg/kg/day, the ED50 (Staph. aureus; carboxymethylcellulose) was 25.0 mg/kg/day and the ED50 (Staph. aureus; phosphate buffer solution) was 27.2 mg/kg/day.

Compound `CC[C@H]1OC(=O)[C@H](C)[C@@H](O[C@H]2C[C@@](C)(OC)[C@@H](O)[C@H](C)O2)[C@H](C)[C@@H](O[C@@H]2O[C@H](C)C[C@H](N(C)C)[C@H]2O)[C@](C)(O)C[C@@H](C)C(=O)[C@H](C)[C@@H](O)[C@]1(C)O` [Erythromycin A, reference compound] has an MIC (Ps. aeruginosa A5007) of 100 mg/L (≈ 136 µM), an MIC [1] of 0.05 mg/L (≈ 0.0681 µM) and an MIC (Strep. pyogenes 930) of 100 mg/L (≈ 136 µM). It also gave an MIC (Staph. aureus A 5177) of 0.78 mg/L (≈ 1.06 µM), an MIC (Micrococcus luteus 9341) of 0.02 mg/L (≈ 0.0273 µM) and an MIC (Ps. aeruginosa BMH10) of 100 mg/L (≈ 136 µM). The ED50 (Strep. pyogenes; phosphate buffer solution) was 37.2 mg/kg/day, the MIC [2] was 100 mg/L (≈ 136 µM) and the MIC (Ps. aeruginosa K799/WT) was 100 mg/L (≈ 136 µM). For the same compound, the MIC [3] was 100 mg/L (≈ 136 µM), the ED50 (indicated test organism; [7]) was 75.7 mg/kg and the ED50 (indicated test organism; [8]) was 10.9 mg/kg. For the same compound, the ED50 (indicated test organism; oral administration, 10080 min) was 48.8 mg/kg/day, the MIC (Ps. cepacia 2961) was 100 mg/L (≈ 136 µM) and the ED50 (Staph. aureus; carboxymethylcellulose) was 86.0 mg/kg/day. It also gave an ED50 (Staph. aureus; phosphate buffer solution) of 75.7 mg/kg/day.

In the case of `CC[C@H]1OC(=O)[C@H](C)[C@@H](O[C@H]2C[C@@](C)(OC)[C@@H](O)[C@H](C)O2)[C@H](C)[C@@H](O[C@@H]2O[C@H](C)C[C@H](N(C)C)[C@H]2O[Si](C)(C)C)[C@](C)(O)C[C@@H](C)C(=O)[C@H](C)[C@@H](O)[C@]1(C)O` [Example 2, 2'-O-Trimethylsilyl Erythromycin A], the degradation ([4]; pH 2 and 4, 37° C.) is reported as “degraded to anhydroerythromycin A”, the anhydroerythromycin formed ([4]; pH 6, 37° C.) is reported as “significant amounts” and the “erythromycin A detected” value ([4]; pH 6, 37° C.) is reported as “A very small amount”. The erythromycin formed ([4]; pH 8, 10 or 12, 37° C.) was “No erythromycin was formed”.

With `CC[C@H]1OC(=O)[C@H](C)[C@@H](O[C@H]2C[C@@](C)(OC)[C@@H](O[Si](C)(C)C)[C@H](C)O2)[C@H](C)[C@@H](O[C@@H]2O[C@H](C)C[C@H](N(C)C)[C@H]2O)[C@](C)(O)C[C@@H](C)C(=O)[C@H](C)[C@@H](O)[C@]1(C)O` [Example 8, 4"-O-trimethylsilyl erythromycin A] the ED50 (indicated test organism; [7]) was 99.7 mg/kg, the ED50 (indicated test organism; [8]) was 16 mg/kg and the ED50 (indicated test organism; oral administration, listed as 4"-O--TMS Ery A, 10080 min) was 61.5 mg/kg/day.

Work on `CC[C@H]1OC(=O)[C@H](C)[C@@H](O[C@H]2C[C@@](C)(OC)[C@@H](O[Si](C)(C)C)[C@H](C)O2)[C@H](C)[C@@H](O[C@@H]2O[C@H](C)C[C@H](N(C)C)[C@H]2O)[C@](C)(OC)C[C@@H](C)C(=O)[C@H](C)[C@@H](O[Si](C)(C)C)[C@]1(C)O` [Example 10, 4"-11-bis(O-TMS)-6-O-methyl erythromycin A] yielded an ED50 (indicated test organism; [7]) of 51.8 mg/kg and an ED50 (indicated test organism; [9]) of 40 mg/kg.

For `CC[C@H]1OC(=O)[C@H](C)[C@@H](O[C@H]2C[C@@](C)(OC)[C@@H](O)[C@H](C)O2)[C@H](C)[C@@H](O[C@@H]2O[C@H](C)C[C@H](N(C)C)[C@H]2O[Si](C)(C)C)[C@](C)(O)C[C@@H](C)C(=NO[Si](C)(C)C)[C@H](C)[C@@H](O)[C@]1(C)O` [Example 11, 2',9-bis(O-trimethylsilyl)-Erythromycin A-9-oxime], the ED50 (indicated test organism; [10]) was 150 mg/kg and the ED50 (indicated test organism; [9]) was 40 mg/kg.

`CC[C@H]1OC(=O)[C@H](C)[C@@H](O[C@H]2C[C@@](C)(OC)[C@@H](O[Si](C)(C)C)[C@H](C)O2)[C@H](C)[C@@H](O[C@@H]2O[C@H](C)C[C@H](N(C)C)[C@H]2OC(C)=O)[C@](C)(O)C[C@@H](C)C(=O)[C@H](C)[C@@H](O[Si](C)(C)C)[C@]1(C)O` [Example 12, 2'-Acetyl-4",11-bis (-O-TMS)-Erythromycin A] showed an ED50 (indicated test organism; [10]) of 250 mg/kg and an ED50 (indicated test organism; [9]) of 40 mg/kg.
